Drawing on PubChem BioAssay AID330 (DTP/NCI, 2004), this text covers T/C for 19 compounds.

The subject of the test is P388 leukemia ip, CD2F1 mice, survival T/C. In words: NCI In Vivo Anticancer Drug Screen. Data for tumor model P388 Leukemia (intraperitoneal) in CD2F1 (CDF1) mice. As to conditions: endpoint: median survival time, higher = longer survival. The method in brief:
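Mice carrying the transplanted tumor received test compound or vehicle. Survival was recorded in each group, and the value is the treated-group measurement divided by that of the vehicle-treated control group.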

Setting [1] is: dose: 50.0 mg/kg/injection, schedule: Q01DX005 (ip), vehicle: Klucel (hydroxypropylcellulose) (HPC).
[2] abbreviates: dose: 100.0 mg/kg/injection, schedule: Q01DX005 (ip), vehicle: Klucel (hydroxypropylcellulose) (HPC).
The mark [3] stands for this setting: dose: 200.0 mg/kg/injection, schedule: Q01DX005 (ip), vehicle: Klucel (hydroxypropylcellulose) (HPC).
[4] abbreviates: dose: 60.0 mg/kg/injection, schedule: Q01DX005 (ip), vehicle: saline.
The mark [5] stands for this setting: dose: 120.0 mg/kg/injection, schedule: Q01DX005 (ip), vehicle: saline.
The mark [6] stands for this setting: dose: 50.0 mg/kg/injection, schedule: Q01DX009 (ip), vehicle: saline.
Setting [7] is: dose: 100.0 mg/kg/injection, schedule: Q01DX009 (ip), vehicle: saline.
Where [8] appears, read: dose: 200.0 mg/kg/injection, schedule: Q01DX009 (ip), vehicle: saline.

Several values for one entry are separate records, joined by “and”; a condition that tells them apart may be missing. Equal values may be shown once. Toxic doses and inconclusive results are not listed. Peptide text beside a SMILES is read from it. * marks the point of attachment. Cbz = O=C(OCc1ccccc1)*; Bn = c1ccc(C*)cc1

Consider `O=C1C2CC3OC3CC2C(=O)N1CCCCCCN1C(=O)C2CC3OC3CC2C1=O` (stereo not drawn), for which the T/C under setting [1] was 91 % of control, the T/C under setting [2] was 90 % of control and the T/C under setting [3] is 89 % of control.

With `FC(F)(F)SN1COCN(SC(F)(F)F)C1`, the T/C runs as follows: (dose: 30.0 mg/kg/injection, schedule: Q01DX005 (ip), vehicle: saline) 96 % of control; under setting [4], 100 % of control; under setting [5], 99 % of control and 102 % of control.

As to `C=C1C(=O)O[C@@H]2[C@H]3C(C)=CC[C@@H](OC(=O)/C(C)=C/C)[C@]3(C)[C@H](O)C[C@@H]12`, the T/C by setting is: (dose: 7.0 mg/kg/injection, schedule: Q01DX005 (ip), vehicle: Klucel (hydroxypropylcellulose) (HPC)) 100 % of control; (dose: 14.0 mg/kg/injection, schedule: Q01DX005 (ip), vehicle: Klucel (hydroxypropylcellulose) (HPC)) 100 % of control; (dose: 28.0 mg/kg/injection, schedule: Q01DX005 (ip), vehicle: Klucel (hydroxypropylcellulose) (HPC)) 106 % of control; (dose: 56.0 mg/kg/injection, schedule: Q01DX005 (ip), vehicle: Klucel (hydroxypropylcellulose) (HPC)) 105 % of control.

Consider `Nc1cccc2cccc([N+](=O)[O-])c12`, for which the T/C is, setting by setting: (dose: 25.0 mg/kg/injection, schedule: Q01DX001 (ip), vehicle: saline with Tween-80) 97 % of control; (dose: 50.0 mg/kg/injection, schedule: Q01DX001 (ip), vehicle: saline with Tween-80) 110 % of control; (dose: 100.0 mg/kg/injection, schedule: Q01DX001 (ip), vehicle: saline with Tween-80) 99 % of control; (dose: 200.0 mg/kg/injection, schedule: Q01DX001 (ip), vehicle: saline with Tween-80) 98 % of control.

Regarding `CC1(C)CC(=O)C(=[N+]=[N-])C(=O)C1`, the T/C is, setting by setting: (dose: 7.5 mg/kg/injection, schedule: Q01DX005 (ip), vehicle: saline with Tween-80) 105 % of control; (dose: 15.0 mg/kg/injection, schedule: Q01DX005 (ip), vehicle: saline with Tween-80) 105 % of control; (dose: 30.0 mg/kg/injection, schedule: Q01DX005 (ip), vehicle: saline with Tween-80) 102 % of control.

For the compound `O=S(=O)(O)C(O)C(F)(F)C(F)(F)C(F)(F)C(F)(F)C(O)S(=O)(=O)O` (stereo not drawn), the T/C runs as follows: under setting [4], 103 % of control; under setting [5], 103 % of control; (dose: 240.0 mg/kg/injection, schedule: Q01DX005 (ip), vehicle: saline) 103 % of control.

On to `O=C1OC(=O)C2C1C1C(c3ccccc3)=C(c3ccccc3)C2C2C(=O)OC(=O)C21` (stereo not drawn), for which the T/C is, setting by setting: (dose: 60.0 mg/kg/injection, schedule: Q01DX005 (ip), vehicle: saline with Tween-80) 103 % of control; (dose: 120.0 mg/kg/injection, schedule: Q01DX005 (ip), vehicle: saline with Tween-80) 111 % of control; (dose: 240.0 mg/kg/injection, schedule: Q01DX005 (ip), vehicle: saline with Tween-80) 116 % of control.

For `CN(C)c1ncnc2c1ncn2C1OC(CO)C(N)C1O` (stereo not drawn), the T/C runs as follows: (dose: 12.5 mg/kg/injection, schedule: Q01DX009 (ip), vehicle: saline with Tween-80) 104 % of control; (dose: 12.5 mg/kg/injection, schedule: Q01DX009 (ip), vehicle: saline) 118 % of control; (dose: 25.0 mg/kg/injection, schedule: Q01DX009 (ip), vehicle: saline with Tween-80) 113 % of control; (dose: 25.0 mg/kg/injection, schedule: Q01DX009 (ip), vehicle: saline) 119 % of control; under setting [6], 117 % of control; (dose: 75.0 mg/kg/injection, schedule: Q01DX009 (ip), vehicle: saline sonified) 163 % of control. Besides, the T/C by setting is: (dose: 100.0 mg/kg/injection, schedule: Q04DX003 (ip), vehicle: saline sonified) 119 % of control; (dose: 200.0 mg/kg/injection, schedule: Q04DX003 (ip), vehicle: saline sonified) 109 % of control; (dose: 400.0 mg/kg/injection, schedule: Q04DX003 (ip), vehicle: saline sonified) 95 % of control.

As to `O=C(O)Cc1sc(-c2ccccc2)nc1-c1ccc(Cl)cc1`, the T/C is 114 % of control (dose: 50.0 mg/kg/injection, schedule: Q01DX009 (ip), vehicle: saline with Tween-80); 110 % of control (dose: 100.0 mg/kg/injection, schedule: Q01DX009 (ip), vehicle: saline with Tween-80); 112 % of control (dose: 200.0 mg/kg/injection, schedule: Q01DX009 (ip), vehicle: saline with Tween-80).

On to `CCCCCCCC[N+]1([O-])CCOCC1`, for which the T/C is, setting by setting: under setting [6], 108 % of control; under setting [7], 97 % of control; under setting [8], 88 % of control.

Regarding `CCC1(O)CN2CCc3c([nH]c4ccccc34)C1C(/C=C(\C(=O)OC)c1cc3c(cc1OC)N(C)C1C(O)(C(=O)OC)C(OC(C)=O)C4(CC)C=CCN5CCC31C54)C2` (stereo not drawn), the T/C (dose: 1.0 mg/kg/injection, schedule: Q01DX001 (ip), vehicle: distilled water + Tween-80) is 102 % of control; the T/C (dose: 2.0 mg/kg/injection, schedule: Q01DX001 (ip), vehicle: distilled water + Tween-80) is 100 % of control; the T/C (dose: 2.0 mg/kg/injection, schedule: Q01DX009 (ip), vehicle: distilled water + alcohol) is 160 % of control; the T/C (dose: 4.0 mg/kg/injection, schedule: Q01DX001 (ip), vehicle: distilled water + Tween-80) is 100 % of control; the T/C (dose: 4.0 mg/kg/injection, schedule: Q01DX009 (ip), vehicle: distilled water + alcohol) was 152 % of control; the T/C (dose: 8.0 mg/kg/injection, schedule: Q01DX001 (ip), vehicle: distilled water + Tween-80) is 102 % of control. Moreover, the T/C is 112 % of control (dose: 16.0 mg/kg/injection, schedule: Q01DX001 (ip), vehicle: distilled water + Tween-80) and 100 % of control (dose: 32.0 mg/kg/injection, schedule: Q01DX001 (ip), vehicle: distilled water + Tween-80).

For `NC(=O)C(Cc1ccccc1)NC(=O)C(CSCc1ccccc1)NC(=O)OCc1ccccc1` (stereo not drawn) (Cbz-Cys(Bn)-Phe-NH2; configuration not given here), the T/C was 103 % of control (dose: 12.5 mg/kg/injection, schedule: Q01DX005 (ip), vehicle: Klucel (hydroxypropylcellulose) (HPC)); 102 % of control (dose: 25.0 mg/kg/injection, schedule: Q01DX005 (ip), vehicle: Klucel (hydroxypropylcellulose) (HPC)); 86 % of control and 91 % of control under setting [1].

As to `CC1(C)CNC(=S)N1Cc1ccccc1`, the T/C (dose: 50.0 mg/kg/injection, schedule: Q01DX009 (ip), vehicle: suspension in saline) was 100 % of control; the T/C (dose: 100.0 mg/kg/injection, schedule: Q01DX009 (ip), vehicle: suspension in saline) was 94 % of control; the T/C (dose: 200.0 mg/kg/injection, schedule: Q01DX009 (ip), vehicle: suspension in saline) was 100 % of control.

For `NC(N)=N/N=C1/C=C2C/C(=N\N=C(N)N)C=C2C1`, the T/C under setting [1] is 106 % of control and the T/C under setting [2] was 104 % of control.

For the compound `CC(=O)c1nc(-c2ccccc2)oc1-c1ccccc1`, the T/C is 96 % of control (dose: 100.0 mg/kg/injection, schedule: Q04DX002 (ip), vehicle: saline); 95 % of control (dose: 200.0 mg/kg/injection, schedule: Q04DX002 (ip), vehicle: saline); 99 % of control (dose: 400.0 mg/kg/injection, schedule: Q04DX002 (ip), vehicle: saline).

As for `OCc1c(-c2ccc(Cl)cc2)c(-c2ccc(F)cc2)c2n1CCC2`, the T/C was 98 % of control under setting [1], 100 % of control under setting [2] and 103 % of control under setting [3].

For the compound `CC(C)(C)C(=O)NC(Cc1cnc[nH]1)C(=O)O` (stereo not drawn), the T/C by setting is: under setting [6], 100 % of control; under setting [7], 106 % of control; under setting [8], 108 % of control.

In the case of `CCC1=C[C@@H]2C[C@](C(=O)OC)(c3cc4c(cc3OC)N(C)[C@H]3[C@@](O)(C(=O)OC)[C@H](OC(C)=O)[C@]5(CC)C=CCN6CC[C@]43[C@@H]65)c3[nH]c4ccccc4c3CCN(C1)C2=O`, the T/C (dose: 4.7 mg/kg/injection, schedule: Q01DX001 (ip), vehicle: other) was 113 % of control; the T/C (dose: 9.4 mg/kg/injection, schedule: Q01DX001 (ip), vehicle: other) was 117 % of control; the T/C (dose: 37.5 mg/kg/injection, schedule: Q01DX001 (ip), vehicle: suspension in saline) is 195 % of control.

Regarding `COC(=O)C1C(C2OC3OC(C)(C)OC3C3OC(C)(C)OC32)N1C(=O)Cl` (stereo not drawn), the T/C runs as follows: (dose: 100.0 mg/kg/injection, schedule: Q04DX002 (ip), vehicle: saline with Tween-80) 102 % of control; (dose: 200.0 mg/kg/injection, schedule: Q04DX002 (ip), vehicle: saline with Tween-80) 103 % of control.
